According to paper PMC8694143 (Microbiology Spectrum, 2021):
Values after ≈ are worked out from the molar mass of the structure shown. “Also recorded” adds a separate entry of the source. Non-standard residues stand in square brackets, D forms with d. Residues, ends and D or L forms follow the SMILES beside them. No end group written: not given here. *: point of attachment. 5FAM = O=C1OC2(c3ccc(O)cc3Oc3cc(O)ccc32)c2ccc(C(=O)*)cc21

Experiments:
[1] = Circular dichroism spectroscopy; type: physicochemical; conditions: CD, 50% TFE (vol/vol), peptide 0.2 mg/mL, room temperature
Protocol: Peptides were dissolved in ultrapure water or 50% TFE (vol/vol) at a concentration of 0.2 mg/mL for spectroscopy. Spectra of samples in a 1 mm pathlength quartz cuvette were recorded from 180 to 260 nm at 0.5 nm steps using an Applied Photophysics Chirascan Plus CD spectrophotometer operating at room temperature.

[2] = system: MRSA ATCC BAA-44; assay: MIC determination in broth; type: cell-based, Staphylococcus aureus; conditions: STIP3 variants, highest conc. tested 100 μg/mL; cation-adjusted MH broth, ~10^5 CFU/mL, 2-fold dilution series, 37°C, 16 h
Protocol: (§1) M. luteus ATCC 4698, S. aureus ATCC 29213, a panel of 7 MRSA (ATCC MP-2) strains, which includes ATCC BAA-41, BAA-42, BAA-44, BAA-1683, BAA-2094, BAA-2313, and 33592, and a series of additional bacterial isolates from human and veterinary cases were used in this study (Table S6). Bacterial strains were routinely grown in lysogeny broth (LB: 10 g/L tryptone, 5 g/L yeast extract, 10 g/L NaCl) at 30°C (M. luteus) or 37°C (Staphylococcus spp.) prior to use in specific experiments described below.
(§2) The MICs were measured for bioactive peptides identified from the initial screen. Cation-adjusted Mueller-Hinton (MH) broth was used as the growth medium for MIC determination experiments. Bacterial cultures were diluted to an OD of 5 × 10^−4 (∼10^5 CFU/mL) in 200 μL MH broth mixed with peptides in a 2-fold dilution series arrayed in 96-well plates. Plates were incubated without shaking at 30 or 37°C depending on the organism.

[3] = system: MRSA ATCC BAA-2094; assay: MIC determination in broth; type: cell-based, Staphylococcus aureus; conditions: STIP3 variants, highest conc. tested 100 μg/mL; cation-adjusted MH broth, ~10^5 CFU/mL, 2-fold dilution series, 37°C, 16 h
Protocol: as §1, §2

[4] = system: MRSA ATCC BAA-42; assay: MIC determination in broth; type: cell-based, Staphylococcus aureus; conditions: STIP3 variants, highest conc. tested 100 μg/mL; cation-adjusted MH broth, ~10^5 CFU/mL, 2-fold dilution series, 37°C, 16 h
Protocol: as §1, §2

[5] = system: MRSA ATCC 33592; assay: MIC determination in broth; type: cell-based, Staphylococcus aureus; conditions: for MIC (μg/mL) for MRSA ATCC 33592: Table 1 and text; for MIC (μg/mL) for MRSA ATCC 33592 / MIC, S. aureus ATCC 33592 (SCCmec III): cation-adjusted MH broth, ~10^5 CFU/mL, 37°C, 16 h; for MIC, S. aureus ATCC 33592 (SCCmec III): Table S5, STIP3 variants, highest conc. tested 100 μg/mL, 2-fold dilution series; for Increase of the MIC relative to STIP3-29: D-Lys substituted variants
Protocol: as §1, §2

[6] = system: S. aureus ATCC 29213; assay: MIC determination in broth; type: cell-based, Staphylococcus aureus; conditions: STIP3 variants, highest conc. tested 100 μg/mL; cation-adjusted MH broth, ~10^5 CFU/mL, 2-fold dilution series, 37°C, 16 h
Protocol: as §1, §2

[7] = system: MRSA ATCC BAA-2313; assay: MIC determination in broth; type: cell-based, Staphylococcus aureus; conditions: STIP3 variants, highest conc. tested 100 μg/mL; cation-adjusted MH broth, ~10^5 CFU/mL, 2-fold dilution series, 37°C, 16 h
Protocol: as §1, §2

[8] = system: MRSA ATCC BAA-1683; assay: MIC determination in broth; type: cell-based, Staphylococcus aureus; conditions: STIP3 variants, highest conc. tested 100 μg/mL; cation-adjusted MH broth, ~10^5 CFU/mL, 2-fold dilution series, 37°C, 16 h
Protocol: as §1, §2

[9] = system: MRSA ATCC BAA-41; assay: MIC determination in broth; type: cell-based, Staphylococcus aureus; conditions: STIP3 variants, highest conc. tested 100 μg/mL; cation-adjusted MH broth, ~10^5 CFU/mL, 2-fold dilution series, 37°C, 16 h
Protocol: as §1, §2

[10] = system: M. luteus ATCC 4698; assay: MIC determination in broth; type: cell-based, Micrococcus luteus; conditions: cation-adjusted MH broth, ~10^5 CFU/mL, 30°C, 48 h
Protocol: as §1, §2

[11] = system: S. aureus; assay: MIC of STIP3-1 alanine variants in liquid broth; type: cell-based, Staphylococcus aureus; conditions: for Activity against S. aureus in nutrient broth: at 200 μg/mL; for MIC, S. aureus (alanine substituted STIP3-1, liquid broth): Table S4, maximum concentration tested 200 μg/mL, strain not given
Protocol: The MICs were measured for bioactive peptides identified from the initial screen. […] […] Plates were incubated without shaking at 30 or 37°C depending on the organism.

[12] = system: SspA; assay: SspA protease in 100 mM HEPES (pH 7.8); conditions: Staphylococcus aureus (staphylococcal secreted protease), 37°C, up to 5 h
[13] = system: SspA; assay: SspA protease resuspended at 2 mg/mL in 100 mM HEPES (pH 7.8); conditions: 37°C, up to 5 h

Molecule: CC[C@@H](C)[C@@H](NC(=O)[C@@H](Cc1c[nH]c2ccccc12)NC(=O)[C@@H](CCCCN)NC(=O)[C@H](NC(=O)[C@@H](CC(C)C)NC(=O)CNC(=O)CNC(=O)[C@H](NC(=O)[C@H](N)[C@H](C)O)C(C)C)C(C)C)C(=O)N[C@H](CC(C)C)C(=O)N[C@H](CCCCN)C(=O)N[C@@H](C(=O)N[C@@H](C(=O)N[C@H](CCCCN)C(=O)N[C@H](CCCCN)C(=O)N[C@H](Cc1ccccc1)C(=O)N[C@H](C)C(N)=O)C(C)C)[C@H](C)O [D-STIP3-29] (H-[dT][dV]GG[dL][dV][dK][dW][dI][dL][dK][dT][dV][dK][dK][dF][dA]-NH2; N-terminus assumed)
- α-Helical content (%) [1]: 47%
- MIC, S. aureus ATCC BAA 44 (SCCmec I) [2]: 12.5 µg/mL (≈ 6.62 µM)
- MIC, S. aureus ATCC BAA 2094 (SCCmec V) [3]: 6.25 µg/mL (≈ 3.31 µM)
- MIC, S. aureus ATCC BAA 42 (SCCmec VI) [4]: 6.25 µg/mL (≈ 3.31 µM)
- MIC (μg/mL) for MRSA ATCC 33592 [5]: 6.25 µg/mL
- MIC, S. aureus ATCC 33592 (SCCmec III) [5]: 6.25 µg/mL (≈ 3.31 µM)
- MIC, S. aureus ATCC 29213 [6]: 6.25 µg/mL (≈ 3.31 µM)
- MIC, S. aureus ATCC BAA 2313 (SCCmec XI) [7]: 6.25 µg/mL (≈ 3.31 µM)
- MIC, S. aureus ATCC BAA 1683 (SCCmec IV) [8]: 6.25 µg/mL (≈ 3.31 µM)
- MIC, S. aureus ATCC BAA 41 (SCCmec II) [9]: 6.25 µg/mL (≈ 3.31 µM)

Molecule: CC[C@@H](C)[C@@H](NC(=O)[C@@H](Cc1c[nH]c2ccccc12)NC(=O)[C@@H](CCCCN)NC(=O)[C@H](NC(=O)[C@@H](CC(C)C)NC(=O)CNC(=O)CNC(=O)[C@H](NC(=O)[C@H](NC(=O)c1ccc2c(c1)C(=O)OC21c2ccc(O)cc2Oc2cc(O)ccc21)[C@H](C)O)C(C)C)C(C)C)C(=O)N[C@H](CC(C)C)C(=O)N[C@H](CCCCN)C(=O)N[C@@H](C(=O)N[C@@H](C(=O)N[C@H](CCCCN)C(=O)N[C@H](CCCCN)C(=O)N[C@H](Cc1ccccc1)C(=O)N[C@H](C)C(N)=O)C(C)C)[C@H](C)O [FAM-D-STIP3-29] (5FAM-[dT][dV]GG[dL][dV][dK][dW][dI][dL][dK][dT][dV][dK][dK][dF][dA]-NH2; C-terminus assumed)
- α-Helical content (%) [1]: 55%

Molecule: CC[C@H](C)[C@H](NC(=O)[C@H](Cc1c[nH]c2ccccc12)NC(=O)[C@H](CCCCN)NC(=O)[C@@H](NC(=O)[C@H](CC(C)C)NC(=O)CNC(=O)CNC(=O)[C@@H](NC(=O)[C@@H](NC(=O)c1ccc2c(c1)C(=O)OC21c2ccc(O)cc2Oc2cc(O)ccc21)[C@@H](C)O)C(C)C)C(C)C)C(=O)N[C@@H](CC(C)C)C(=O)N[C@@H](CCCCN)C(=O)N[C@H](C(=O)N[C@H](C(=O)N[C@@H](CCCCN)C(=O)N[C@@H](CCCCN)C(=O)N[C@@H](Cc1ccccc1)C(=O)N[C@@H](C)C(N)=O)C(C)C)[C@@H](C)O [FAM-L-STIP3-29] (5FAM-TVGGLVKWILKTVKKFA-NH2; C-terminus assumed)
- α-Helical content (%) [1]: 72%

Molecule: CC[C@H](C)[C@H](NC(=O)[C@H](Cc1c[nH]c2ccccc12)NC(=O)[C@H](CCCCN)NC(=O)[C@@H](NC(=O)[C@H](CC(C)C)NC(=O)CNC(=O)CNC(=O)[C@@H](NC(=O)[C@@H](N)[C@@H](C)O)C(C)C)C(C)C)C(=O)N[C@@H](CC(C)C)C(=O)N[C@H](CCCCN)C(=O)N[C@H](C(=O)N[C@H](C(=O)N[C@@H](CCCCN)C(=O)N[C@@H](CCCCN)C(=O)N[C@@H](Cc1ccccc1)C(=O)N[C@@H](C)C(N)=O)C(C)C)[C@@H](C)O [STIP3-29-D1] (H-TVGGLVKWIL[dK]TVKKFA-NH2; N-terminus assumed)
- α-Helical content (%) [1]: 51%
- Increase of the MIC relative to STIP3-29 [5]: 4 fold
- MIC (μg/mL) for MRSA ATCC 33592 [5]: 25 µg/mL
- MIC, S. aureus ATCC 33592 (SCCmec III) [5]: 25 µg/mL (≈ 13.2 µM)
- MIC, S. aureus ATCC 29213 [6]: 12.5 µg/mL (≈ 6.62 µM)

Molecule: CC[C@H](C)[C@H](NC(=O)[C@H](Cc1c[nH]c2ccccc12)NC(=O)[C@@H](CCCCN)NC(=O)[C@@H](NC(=O)[C@H](CC(C)C)NC(=O)CNC(=O)CNC(=O)[C@@H](NC(=O)[C@@H](N)[C@@H](C)O)C(C)C)C(C)C)C(=O)N[C@@H](CC(C)C)C(=O)N[C@H](CCCCN)C(=O)N[C@H](C(=O)N[C@H](C(=O)N[C@@H](CCCCN)C(=O)N[C@H](CCCCN)C(=O)N[C@@H](Cc1ccccc1)C(=O)N[C@@H](C)C(N)=O)C(C)C)[C@@H](C)O [STIP3-29-D3] (H-TVGGLV[dK]WIL[dK]TVK[dK]FA-NH2; N-terminus assumed)
- α-Helical content (%) [1]: 32%
- Increase of the MIC relative to STIP3-29 [5]: inactivation
- MIC (μg/mL) for MRSA ATCC 33592 [5]: >100 µg/mL
- MIC, S. aureus ATCC 33592 (SCCmec III) [5]: > (The > symbol indicates that no inhibition was observed at 100 μg/mL for the STIP3 variants)
- MIC, S. aureus ATCC 29213 [6]: > (The > symbol indicates that no inhibition was observed at 100 μg/mL for the STIP3 variants)

Molecule: AVGGLVKWILDTVKKFA [T1A]
- MIC, M. luteus [10]: 12.5 µg/mL
- Activity against S. aureus in nutrient broth [11]: maintained activity

Molecule: IIGTINDLIKWIADTVEKYKK
- fragment found [12]: IIGTIND; also recorded: LIKWIAD
- cleaved bond [13]: D-L and D-T
- fragment found [13]: KYKK and LIKWIADTVE

Molecule: IISTIGDLIKWIIDTVKKFKK
- fragment found [12]: IISTIGDLIKWIID; also recorded: TVKKFKK
- cleaved bond [13]: D-T

Molecule: IISTIVEFVKLIAETIAKFMK
- fragment found [12]: IISTIVE; also recorded: FVKLIAETIAKFMK; also recorded: TIAKFMK
- cleaved bond [13]: E-T and E-F

Molecule: IVETVGGLVKWILDTVKKFA
- fragment found [12]: TVKKFA
- cleaved bond [13]: D-T
- fragment found [13]: IVE and TVGGLVKWILDTVKKFA and TVGGLVKWILD

Molecule: TVGGLVKWILATVKKFA [STIP3-2]
- MIC, M. luteus [10]: 3.13 µg/mL
- MIC, S. aureus (alanine substituted STIP3-1, liquid broth) [11]: 100 µg/mL
- Activity against S. aureus in nutrient broth [11]: maintained activity
- MIC, S. aureus ATCC BAA 44 (SCCmec I) [2]: 100 µg/mL
- MIC, S. aureus ATCC BAA 2094 (SCCmec V) [3]: 50 µg/mL
- MIC, S. aureus ATCC BAA 42 (SCCmec VI) [4]: 50 µg/mL
- MIC, S. aureus ATCC 33592 (SCCmec III) [5]: 50 µg/mL
- MIC, S. aureus ATCC 29213 [6]: 100 µg/mL
- MIC, S. aureus ATCC BAA 2313 (SCCmec XI) [7]: 50 µg/mL
- MIC, S. aureus ATCC BAA 1683 (SCCmec IV) [8]: 50 µg/mL
- MIC, S. aureus ATCC BAA 41 (SCCmec II) [9]: 100 µg/mL

Molecule: TVGGLVKWILDAVKKFA [T12A]
- MIC, M. luteus [10]: 12.5 µg/mL
- MIC, S. aureus (alanine substituted STIP3-1, liquid broth) [11]: 100 µg/mL
- Activity against S. aureus in nutrient broth [11]: maintained activity

Molecule: TVGGLVKWILDTAKKFA [V13A]
- MIC, M. luteus [10]: 50 µg/mL
- Activity against S. aureus in nutrient broth [11]: maintained activity

Molecule: TVGGLVKWILDTVKKFA
- fragment found [12]: TVGGLVKWILD; also recorded: TVKKFA
- cleaved bond [13]: Asp11-T12
